# Residue numbers refer to the chain shown, from its start.
# Assays:
# Assay type in all cases: cell-based
# Conditions in all cases: for ΔpEC50±SEM: relative to WT, n = 3 in triplicate; for ΔpEC50±SEM / Span±SEM: mean ± SEM; for Span±SEM: window between maximal response (Emax) and vehicle, n = 3
# PTH1R E180A mutant = target: T1, PTH1R E180A mutant (Homo sapiens, UniProt Q03431, E180A); assay: cAMP accumulation assay (GloSensor), PTH1R E180A
# T1 construct: a flag-tag was fused to the N terminal of full-length PTH1R (WT or mutant); expressed in transfected cells; host or cells: HEK293T
# T1 sequence (Q03431 27-593 E180A): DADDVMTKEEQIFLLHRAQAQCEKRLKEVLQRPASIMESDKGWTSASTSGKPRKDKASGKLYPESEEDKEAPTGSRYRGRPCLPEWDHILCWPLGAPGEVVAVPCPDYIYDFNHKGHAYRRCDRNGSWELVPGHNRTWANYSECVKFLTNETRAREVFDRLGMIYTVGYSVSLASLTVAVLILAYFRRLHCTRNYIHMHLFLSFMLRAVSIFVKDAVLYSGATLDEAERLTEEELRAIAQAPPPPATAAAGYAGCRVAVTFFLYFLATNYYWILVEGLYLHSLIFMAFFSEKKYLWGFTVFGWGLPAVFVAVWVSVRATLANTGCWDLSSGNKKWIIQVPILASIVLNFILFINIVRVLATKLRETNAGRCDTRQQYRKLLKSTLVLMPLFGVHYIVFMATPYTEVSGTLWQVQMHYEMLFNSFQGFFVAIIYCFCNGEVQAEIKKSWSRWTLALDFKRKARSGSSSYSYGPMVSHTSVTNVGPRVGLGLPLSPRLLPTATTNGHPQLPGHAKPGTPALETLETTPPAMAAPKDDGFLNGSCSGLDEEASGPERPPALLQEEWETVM
# Protocol: (§1) Human embryonic kidney 293 T (HEK293T, ATCC: CRL-1573) cells were transfected with a plasmid mixture consisting of pcDNA3.1-flag-PTH1R (WT or mutants) and the cAMP biosensor GloSensor-22F (Promega) at a ratio of 2:1 (see Supplementary Table 7 for a list of primers used in this study). After 24 h, transfected cells were plated onto a 384-well plate, which was treated with cell adherent reagent (Applygen) in advance. After another 12 h, cells were treated with Hank’s balanced salt solution for starvation and then incubated in CO2-independent media containing 4% GloSensor cAMP Reagent (Promega) at a volume of 5 μl per well and incubated for 20 min at RT before measurements for baseline luminescence (Spark Multimode microplate reader, TECAN). Next, test ligands were added at different concentrations from 10^−6 to 10^−13 M before second measurement. Finally, data were normalized to 100% of the maximal PTH (1-34) response for WT PTH1R using a sigmoidal dose-response in GraphPad Prism.
# (§2) Statistical analyses were performed on at least three individual datasets and analysed using GraphPad Prism software. Bars represent differences in the calculated agonist potency (pEC50) and maximum agonist response (Emax) for each mutant relative to the WT receptor. Data are mean± s.e.m. from at least three independent experiments, performed in triplicates. ns, not significant, ^nsP > 0.01; ^*P < 0.01; ^**P < 0.001; ^***P < 0.0001 (one-way analysis of variance (ANOVA) followed by Dunnett’s test, compared with the response of the WT). For dose-response experiments, data were normalized and analyzed using nonlinear curve fitting for the log (agonist) versus response (three parameters) curves.
# PTH1R T430A mutant = target: T2, PTH1R T430A mutant (Homo sapiens, UniProt Q03431, T430A); assay: cAMP accumulation assay (GloSensor), PTH1R T430A
# T2 construct: a flag-tag was fused to the N terminal of full-length PTH1R (WT or mutant); expressed in transfected cells; host or cells: HEK293T
# T2 sequence (Q03431 27-593 T430A): T1 sequence (Q03431 27-593 E180A) with A154E, T404A
# Protocol: as §1, §2
# WT PTH1R = target: T3, WT PTH1R (Homo sapiens, UniProt Q03431); assay: cAMP accumulation assay (GloSensor), wild-type PTH1R
# T3 construct: a flag-tag was fused to the N terminal of full-length PTH1R (WT or mutant); expressed in transfected cells; host or cells: HEK293T
# T3 sequence (Q03431 27-593): T1 sequence (Q03431 27-593 E180A) with A154E
# Protocol: as §1, §2
Substance,"span (from the WT) (PTH1R E180A mutant; PTH1R E1801.32A, replicate 1)","ΔpEC50 (from the WT) (PTH1R E180A mutant; PTH1R E1801.32A, replicate 1)","span (from the WT) (PTH1R E180A mutant; PTH1R E1801.32A, replicate 2)","ΔpEC50 (from the WT) (PTH1R E180A mutant; PTH1R E1801.32A, replicate 2)","span (from the WT) (PTH1R E180A mutant; PTH1R E1801.32A, replicate 3)","ΔpEC50 (from the WT) (PTH1R E180A mutant; PTH1R E1801.32A, replicate 3)",ΔpEC50±SEM (PTH1R E180A mutant),ΔpEC50 (from the WT) (PTH1R E180A mutant; replicate 1),ΔpEC50 (from the WT) (PTH1R E180A mutant; replicate 2),ΔpEC50 (from the WT) (PTH1R E180A mutant; replicate 3),Span±SEM (PTH1R E180A mutant),"span (from the WT) (PTH1R T430A mutant; PTH1R T430ECL3A, replicate 1)","ΔpEC50 (from the WT) (PTH1R T430A mutant; PTH1R T430ECL3A, replicate 1)","span (from the WT) (PTH1R T430A mutant; PTH1R T430ECL3A, replicate 2)","ΔpEC50 (from the WT) (PTH1R T430A mutant; PTH1R T430ECL3A, replicate 2)","span (from the WT) (PTH1R T430A mutant; PTH1R T430ECL3A, replicate 3)","ΔpEC50 (from the WT) (PTH1R T430A mutant; PTH1R T430ECL3A, replicate 3)",ΔpEC50±SEM (PTH1R T430A mutant),ΔpEC50 (from the WT) (PTH1R T430A mutant; replicate 1),ΔpEC50 (from the WT) (PTH1R T430A mutant; replicate 2),other results
"H-AVAEIQLMHQRAKWIQDARRRAFLHKLIAEIHTAEI-OH [LA-PTH, long-acting PTH analog, modified PTH/PTHrP hybrid]",111,-0.03,162.5,0.025,202.3,0.095,0.03±0.04,-0.03,0.025,0.095,158.60±26.43,172.2,-1.056,195.6,-1.067,155.2,-1.166,-1.10±0.03,-1.056,-1.067,"ΔpEC50 (from the WT) (PTH1R T430A mutant; replicate 3): -1.166; Span±SEM (PTH1R T430A mutant): 174.33±11.17; span (from the WT) (WT PTH1R; PTH1R WT, replicate 1): 106.8; ΔpEC50 (from the WT) (WT PTH1R; PTH1R WT, replicate 1): 0; span (from the WT) (WT PTH1R; PTH1R WT, replicate 2): 118.8; ΔpEC50 (from the WT) (WT PTH1R; PTH1R WT, replicate 2): 0; span (from the WT) (WT PTH1R; PTH1R WT, replicate 3): 116.4; ΔpEC50 (from the WT) (WT PTH1R; PTH1R WT, replicate 3): 0; ΔpEC50±SEM (WT PTH1R): 0; ΔpEC50 (from the WT) (WT PTH1R; replicate 1): 0; ΔpEC50 (from the WT) (WT PTH1R; replicate 2): 0; ΔpEC50 (from the WT) (WT PTH1R; replicate 3): 0; Span±SEM (WT PTH1R): 114.00±3.67"
"H-AVSEHQLLHDKGKSIQDLRRRELLEKLL-{Aib}-KLHTA-NH2 [ABL, Abaloparatide, an analog of PTHrP, short-acting PTH1R agonist]",108.1,-0.513,146.6,-0.61,148,-0.513,-0.55±0.03,-0.513,-0.61,-0.513,134.23±13.07,230.5,-0.76,190.2,-0.775,191.7,-0.865,-0.8±0.03,-0.76,-0.775,"ΔpEC50 (from the WT) (PTH1R T430A mutant; replicate 3): -0.865; Span±SEM (PTH1R T430A mutant): 204.13±13.19; span (from the WT) (WT PTH1R; PTH1R WT, replicate 1): 115.9; ΔpEC50 (from the WT) (WT PTH1R; PTH1R WT, replicate 1): 0; span (from the WT) (WT PTH1R; PTH1R WT, replicate 2): 122.2; ΔpEC50 (from the WT) (WT PTH1R; PTH1R WT, replicate 2): 0; span (from the WT) (WT PTH1R; PTH1R WT, replicate 3): 127.3; ΔpEC50 (from the WT) (WT PTH1R; PTH1R WT, replicate 3): 0; ΔpEC50±SEM (WT PTH1R): 0; ΔpEC50 (from the WT) (WT PTH1R; replicate 1): 0; ΔpEC50 (from the WT) (WT PTH1R; replicate 2): 0; ΔpEC50 (from the WT) (WT PTH1R; replicate 3): 0; Span±SEM (WT PTH1R): 121.80±3.30"
"H-SVSEIQLMHNLGKHLNSMERVEWLRKKLQDVHNF-OH [PTH, Teriparatide, human PTH 1-34, long-acting peptide agonist of PTH1R]",108.2,-0.151,115.5,-0.207,203.5,0.036,-0.11±0.07,-0.151,-0.207,0.036,193.57±39.96,194,0.303,170.6,0.384,159.7,0.286,-0.32±0.03,0.303,0.384,"ΔpEC50 (from the WT) (PTH1R T430A mutant; replicate 3): 0.286; Span±SEM (PTH1R T430A mutant): 174.77±10.12; Emax (WT PTH1R; HEK293T cells, from curve fitting dose-response data): 103.1 luminescence counts per 500ms; span (from the WT) (WT PTH1R; PTH1R WT, replicate 1): 125.1; ΔpEC50 (from the WT) (WT PTH1R; PTH1R WT, replicate 1): 0; span (from the WT) (WT PTH1R; PTH1R WT, replicate 2): 136.6; ΔpEC50 (from the WT) (WT PTH1R; PTH1R WT, replicate 2): 0; span (from the WT) (WT PTH1R; PTH1R WT, replicate 3): 114.9; ΔpEC50 (from the WT) (WT PTH1R; PTH1R WT, replicate 3): 0; ΔpEC50±SEM (WT PTH1R): 0; ΔpEC50 (from the WT) (WT PTH1R; replicate 1): 0; ΔpEC50 (from the WT) (WT PTH1R; replicate 2): 0; ΔpEC50 (from the WT) (WT PTH1R; replicate 3): 0; Span±SEM (WT PTH1R): 125.53±6.27"
